According to patent US8822468B2 (Novartis AG, priority 2008, dated 2014):

biological target: T1, cMET receptor tyrosine kinase (GST-cMET (969-1390)) (Homo sapiens, UniProt P08581); assay: EPK cMET profiling assay (LanthaScreen TR-FRET antibody based kinase phosphorylation assay); format: biochemical; conditions: purified recombinant GST-cMET (969-1390), 2 μM ATP, 50 nM Fluorescein-PolyEAY, 60 minutes at room temperature; read-out: c-Met IC50
T1 construct: made in house
Outline: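 Compounds tested at eight final concentrations from 10 down to 0.003 µM against affinity-purified GST-cMET (969-1390, 0.3 nM) with 2 µM ATP and 50 nM fluorescein-PolyEAY in Tris buffer with MgCl2 and MnCl2, 1 h at room temperature. After EDTA stop, phosphoproduct detected by LanthaScreen TR-FRET with Tb-PY20 antibody, end-point measurement.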

T1 sequence (P08581 969-1390): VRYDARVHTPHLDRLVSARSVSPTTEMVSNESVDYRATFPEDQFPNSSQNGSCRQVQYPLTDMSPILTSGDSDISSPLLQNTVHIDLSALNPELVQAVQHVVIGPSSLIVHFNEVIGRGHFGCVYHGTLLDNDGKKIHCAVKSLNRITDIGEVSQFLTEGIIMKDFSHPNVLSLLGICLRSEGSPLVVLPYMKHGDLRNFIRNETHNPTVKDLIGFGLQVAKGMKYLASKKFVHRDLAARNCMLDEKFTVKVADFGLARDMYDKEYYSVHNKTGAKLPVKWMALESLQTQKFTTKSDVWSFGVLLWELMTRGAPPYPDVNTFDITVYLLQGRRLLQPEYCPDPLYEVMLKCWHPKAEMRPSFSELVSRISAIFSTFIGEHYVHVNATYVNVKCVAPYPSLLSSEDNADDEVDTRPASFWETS

SMILES	IC50 [nM]
CCn1cc(-c2ccc3ncc(Cc4cc5cccnc5cc4Cl)n3n2)cn1 [Example 242, 7-Chloro-6-[6-(1-ethyl-1H-pyrazol-4-yl)-imidazo[1,2-b]pyridazin-3-ylmethyl]-quinoline]	86
OCCn1cc(-c2ccc3ncc(Cc4cc5cccnc5cc4Cl)n3n2)cn1 [Example 243, 2-{4-[3-(7-Chloro-quinolin-6-ylmethyl)-imidazo[1,2-b]pyridazin-6-yl]-pyrazol-1-yl}-ethanol]	37
CC(C)(C)OC(=O)N1CCC(n2cc(-c3ccc4ncc(Cc5c(F)cc6ncccc6c5F)n4n3)cn2)CC1 [Example 244, 4-{4-[3-(5,7-Difluoro-quinolin-6-ylmethyl)-imidazo[1,2-b]pyridazin-6-yl]-pyrazol-1-yl}-piperidine-1-carboxylic acid tert-butyl ester]	87
Fc1cc2ncccc2c(F)c1Cc1cnc2ccc(-c3cnn(C4CCNCC4)c3)nn12 [Example 245, 5,7-Difluoro-6-[6-(1-piperidin-4-yl-1H-pyrazol-4-yl)-imidazo[1,2-b]pyridazin-3-ylmethyl]-quinoline]	44
CN1CCC(n2cc(-c3ccc4ncc(Cc5c(F)cc6ncccc6c5F)n4n3)cn2)CC1 [Example 246, 5,7-Difluoro-6-{6-[1-(1-methyl-piperidin-4-yl)-1H-pyrazol-4-yl]-imidazo[1,2-b]pyridazin-3-ylmethyl}-quinoline]	< 3
CCn1cc(-c2ccc3ncc(Cc4cc5cccnc5cc4F)n3n2)cn1 [Example 250, 6-[6-(1-Ethyl-1H-pyrazol-4-yl)-imidazo[1,2-b]pyridazin-3-ylmethyl]-7-fluoro-quinoline]	15
Fc1cc2ncccc2cc1Cc1cnc2ccc(-c3cn[nH]c3)nn12 [Example 251, 7-Fluoro-6-[6-(1H-pyrazol-4-yl)-imidazo[1,2-b]pyridazin-3-ylmethyl]-quinoline]	21
OCCn1cc(-c2ccc3ncc(Cc4cc5cccnc5cc4F)n3n2)cn1 [Example 254, 2-{4-[3-(7-Fluoro-quinolin-6-ylmethyl)-imidazo[1,2-b]pyridazin-6-yl]-pyrazol-1-yl}-ethanol]	33
C[C@@H](c1cc2cccnc2cc1F)c1cnc2ccc(-c3cnn(CCO)c3)nn12 [Example 257]	< 3
O[C@H]1CCN(c2ccc3ncc(Cc4cc5cccnc5cc4F)n3n2)C1 [Example 261, (S)-1-[3-(7-Fluoro-quinolin-6-ylmethyl)-imidazo[1,2-b]pyridazin-6-yl]-pyrrolidin-3-ol]	120
O[C@@H]1CCN(c2ccc3ncc(Cc4cc5cccnc5cc4F)n3n2)C1 [Example 262, (R)-1-[3-(7-Fluoro-quinolin-6-ylmethyl)-imidazo[1,2-b]pyridazin-6-yl]-pyrrolidin-3-ol]	42
Fc1cc2ncccc2c(F)c1Cc1cnc2ccc(-c3cn[nH]c3)nn12 [Example 263, 5,7-Difluoro-6-[6-(1H-pyrazol-4-yl)-imidazo[1,2-b]pyridazin-3-ylmethyl]-quinoline]	10
C[C@@H](c1ccc2ncccc2c1)c1cnc2ccc(Cl)nn12 [Example 273, 6-[(S)-1-(6-Chloro-imidazo[1,2-b]pyridazin-3-yl)-ethyl]-quinoline]	21
C[C@@H](c1ccc2c(cnn2CCO)c1)c1cnc2ccc(-c3cnn(C)c3)nn12 [Example 275, 2-(5-{(S)-1-[6-(1-Methyl-1H-pyrazol-4-yl)-imidazo[1,2-b]pyridazin-3-yl]-ethyl}-indazol-1-yl)ethanol]	150
Cn1cc(-c2ccc3ncc(Cc4ccc5c(cnn5C)c4)n3n2)cn1 [Example 276, 3-(1-Methyl-1H-indazol-5-ylmethyl)-6-(1-methyl-1H-pyrazol-4-yl)-imidazo[1,2-b]pyridazine]	82
Cn1cc(-c2ccc3ncc(Cc4cc5cnn(C)c5cc4F)n3n2)cn1 [Example 277, 3-(6-Fluoro-1-methyl-1H-indazol-5-ylmethyl)-6-(1-methyl-1H-pyrazol-4-yl)-imidazo[1,2-b]pyridazine]	61
Cn1ncc2cc(Cc3cnc4ccc(-c5cnn(CCO)c5)nn34)c(F)cc21 [Example 281, 2-{4-[3-(6-Fluoro-1-methyl-1H-indazol-5-ylmethyl)-imidazo[1,2-b]pyridazin-6-yl]-pyrazol-1-yl}-ethanol]	77
Cn1ncc2cc(Cc3cnc4ccc(-c5cnn(C6CCNCC6)c5)nn34)c(F)cc21 [Example 282, 3-(6-Fluoro-1-methyl-1H-indazol-5-ylmethyl)-6-(1-piperidin-4-yl-1H-pyrazol-4-yl)-imidazo[1,2-b]pyridazine]	87
Cn1cc(-c2ccc3ncc(Cc4c(F)cc5c(cnn5C)c4F)n3n2)cn1 [Example 284, 3-(4,6-Difluoro-1-methyl-1H-indazol-5-ylmethyl)-6-(1-methyl-1H-pyrazol-4-yl)-imidazo[1,2-b]pyridazine]	150

SMILES	IC50 [nM]
Cn1ncc2c(F)c(Cc3cnc4ccc(-c5cnn(CCO)c5)nn34)c(F)cc21 [Example 285, 2-{4-[3-(4,6-Difluoro-1-methyl-1H-indazol-5-ylmethyl)-imidazo[1,2-b]pyridazin-6-yl]-pyrazol-1-yl}-ethanol]	11
Cn1cc(-c2ccc3ncc(Cc4ccc5nc(F)cn5c4)n3n2)cn1 [Example 288, 3-(2-Fluoro-imidazo[1,2-a]pyridin-6-ylmethyl)-6-(1-methyl-1H-pyrazol-4-yl)-imidazo[1,2-b]pyridazine]	850
CCn1cc(-c2ccc3ncc(Cc4ccc5nccn5c4)n3n2)cn1 [Example 289, 6-(1-Ethyl-1H-pyrazol-4-yl)-3-imidazo[1,2-a]pyridin-6-ylmethyl-imidazo[1,2-b]pyridazine]	140
c1cn2cc(Cc3cnc4ccc(-c5cn[nH]c5)nn34)ccc2n1 [Example 290, 3-Imidazo[1,2-a]pyridin-6-ylmethyl-6-(1H-pyrazol-4-yl)-imidazo[1,2-b]pyridazine]	120
c1cn2cc(Cc3cnc4ccc(-c5cnn(C6CCNCC6)c5)nn34)ccc2n1 [Example 291, 3-Imidazo[1,2-a]pyridin-6-ylmethyl-6-(1-piperidin-4-yl-1H-pyrazol-4-yl)-imidazo[1,2-b]pyridazine]	590
C[C@H](c1ccc2nccn2c1)c1cnc2ccc(-c3cnn(C)c3)nn12 [Example 294, 3-((R)-1-Imidazo[1,2-a]pyridin-6-yl-ethyl)-6-(1-methyl-1H-pyrazol-4-yl)-imidazo[1,2-b]pyridazine]	820
C[C@@H](c1ccc2nccn2c1)c1cnc2ccc(-c3cnn(C)c3)nn12 [Example 295, 3-((S)-1-Imidazo[1,2-a]pyridin-6-yl-ethyl)-6-(1-methyl-1H-pyrazol-4-yl)-imidazo[1,2-b]pyridazine]	19
Cn1cc(-c2ccc3ncc(Cc4ccc5ncc(Br)n5c4)n3n2)cn1 [Example 296, 3-(3-Bromo-imidazo[1,2-a]pyridin-6-ylmethyl)-6-(1-methyl-1H-pyrazol-4-yl)-imidazo[1,2-b]pyridazine]	57
Cn1cc(-c2ccc3ncc(Cc4ccc5ncc(C=O)n5c4)n3n2)cn1 [Example 297, 6-[6-(1-Methyl-1H-pyrazol-4-yl)-imidazo[1,2-b]pyridazin-3-ylmethyl]-imidazo[1,2-a]pyridine-3-carbaldehyde]	130
Cn1cc(-c2ccc3ncc(Cc4ccc5ncc(Cl)n5c4)n3n2)cn1 [Example 298, 3-(3-Chloro-imidazo[1,2-a]pyridin-6-ylmethyl)-6-(1-methyl-1H-pyrazol-4-yl)-imidazo[1,2-b]pyridazine]	130
C=Cc1cnc2ccc(Cc3cnc4ccc(-c5cnn(C)c5)nn34)cn12 [Example 299, 6-(1-Methyl-1H-pyrazol-4-yl)-3-(3-vinyl-imidazo[1,2-a]pyridin-6-ylmethyl)-imidazo[1,2-b]pyridazine]	270
Cn1cc(-c2ccc3ncc(Cc4ccc5ncc(CO)n5c4)n3n2)cn1 [Example 300, {6-[6-(1-Methyl-1H-pyrazol-4-yl)-imidazo[1,2-b]pyridazin-3-ylmethyl]-imidazo[1,2-a]pyridin-3-yl}-methanol]	300
CC(=O)c1cnc2ccc(Cc3cnc4ccc(-c5cnn(C)c5)nn34)cn12 [Example 301, 1-{6-[6-(1-Methyl-1H-pyrazol-4-yl)-imidazo[1,2-b]pyridazin-3-ylmethyl]-imidazo[1,2-a]pyridin-3-yl}-ethanone]	71
Cn1cc(-c2ccc3ncc(Cc4ccc5ncc(C#N)n5c4)n3n2)cn1 [Example 302, 6-[6-(1-Methyl-1H-pyrazol-4-yl)-imidazo[1,2-b]pyridazin-3-ylmethyl]-imidazo[1,2-a]pyridine-3-carbonitrile]	94
CC(O)c1cnc2ccc(Cc3cnc4ccc(-c5cnn(C)c5)nn34)cn12 (stereo not shown) [Example 303, 1-{6-[6-(1-Methyl-1H-pyrazol-4-yl)-imidazo[1,2-b]pyridazin-3-ylmethyl]-imidazo[1,2-a]pyridin-3-yl}-ethanol]	190
Cn1cc(-c2ccc3ncc(Cc4ccc5ncc(C(O)CO)n5c4)n3n2)cn1 (stereo not shown) [Example 304, 1-{6-[6-(1-Methyl-1H-pyrazol-4-yl)-imidazo[1,2-b]pyridazin-3-ylmethyl]-imidazo[1,2-a]pyridin-3-yl}-ethane-1,2-diol]	330
Cn1cc(-c2ccc3ncc(Cc4ccc5ncc(-c6cccc(C#N)c6)n5c4)n3n2)cn1 [Example 305, 3-{6-[6-(1-Methyl-1H-pyrazol-4-yl)-imidazo[1,2-b]pyridazin-3-ylmethyl]-imidazo[1,2-a]pyridin-3-yl}-benzonitrile]	260
Cn1cc(-c2ccc3ncc(Cc4ccc5ncc(-c6cccnc6)n5c4)n3n2)cn1 [Example 306, 6-(1-Methyl-1H-pyrazol-4-yl)-3-(3-pyridin-3-yl-imidazo[1,2-a]pyridin-6-ylmethyl)-imidazo[1,2-b]pyridazine]	100
